Literature values as cited in patent EP0611304B1, “USE OF […] (ACEMANNAN) FOR THE REGULATION OF BLOOD C[…] AND FOR REMOVING PLAQUES IN BLOOD VESSELS” (CARRINGTON LABORATORIES, INC., priority 1991, dated 1993).

System: CEM cells infected with HTLV-IIIRFII virus
Details: 0.001 µg/ml AZT alone

Cc1cn([C@H]2C[C@H](N=[N+]=[N-])[C@@H](CO)O2)c(=O)[nH]c1=O [AZT, Zidovudine]
increase in viability of infected CEM cells: no more than 10%
